The NIST ThermoML archive (doi:10.1021/acs.jced.5b00288)
Several values for one entry are separate records, joined by “and”; a condition that tells them apart may be missing. Equal entries are not always repeated.

Test: excess molar enthalpy (molar enthalpy of mixing); xn = mol fraction of the nth substance listed
Details: 1060 K, 101 kPa, Liquid, Calvet calorimetry

[I][La]([I])[I] [lanthanum triiodide] + [I-].[K+]
Details	excess molar enthalpy
x1 = 0.048	-0.464 kcal/mol
x1 = 0.1	-0.973 kcal/mol
x1 = 0.152	-1.53 kcal/mol
x1 = 0.199	-1.64 kcal/mol and -1.93 kcal/mol
x1 = 0.246	-2.13 kcal/mol
x1 = 0.25	-1.76 kcal/mol
x1 = 0.304	-1.79 kcal/mol
x1 = 0.348	-1.89 kcal/mol
x1 = 0.354	-2.3 kcal/mol
x1 = 0.398	-1.93 kcal/mol

[I][La]([I])[I] [lanthanum triiodide] + [I-].[Na+]
Details	excess molar enthalpy [kcal/mol]
x1 = 0.0482	-0.189
x1 = 0.0991	-0.415
x1 = 0.1503	-0.462
x1 = 0.2	-0.678
x1 = 0.2477	-0.549
x1 = 0.296	-0.821
x1 = 0.3412	-0.655
x1 = 0.3968	-0.69
x1 = 0.3984	-0.763
x1 = 0.4454	-0.683
x1 = 0.4931	-0.497
x1 = 0.4966	-0.576
x1 = 0.5392	-0.605
